Measurements taken from publication PMC6273229, “Imidazopyranotacrines as Non-Hepatotoxic, Selective Acetylcholinesterase Inhibitors, and Antioxidant Agents for Alzheimer′s Disease Therapy” (Molecules, 2016).
Where “and” joins values, the source holds several entries; their conditions need not be identical. Equal entries are not always repeated. Entries after “also recorded” stand apart in the source; their conditions may differ. Where two headings read alike, the source gives them in different places.

Columns and labels:
HepG2 cells = type: cell-based; conditions: for Cell viability (MTT reduction, % control): 24 h, mean ± S.E.M.; for hepatotoxicity on HepG2 cells (in words): cell viability assay, 1–1000 µM
Procedure: The human hepatoma HepG2 line cells were purchased from American Type Culture Collection. The cells were cultured in Eagle’s Minimum Essential Medium (Ozyme, Montigny-le-Bretonneux, France) supplemented with 10% fetal bovine serum, 1X non-essential amino acids, 100 units/mL penicillin and […] streptomycin (Dutscher, Brumath, France). […] Prior to the experiment, cells were seeded in 96-well culture plates at a density of 0.1 × 10^6 cells per well. After 24 h of incubation, the culture medium was refreshed and 100 µL of the test compounds or DMSO (0.1%) were added. Compounds were tested at 7 concentrations (1–1000 µM) in triplicate.
Cell viability, measured as the mitochondrial activity of living cells, was determined by quantitative colorimetric assay with 3-[4,5 dimethylthiazol-2-yl]-2,5-diphenyl-tetrazolium bromide (MTT). Briefly, after 24 h of treatment, cells were incubated with 50 µL MTT (0.5 mg/mL, Sigma Aldrich) at 37 °C for 2 h. Plates were centrifuged, MTT was removed and 100 µL DMSO was distributed per well. The absorbance was read at 570 nm by microplate spectrophotometry. Cell viability was expressed as percentage over controls (DMSO, 0.1%).

[1] = Oxygen radical absorbance capacity by fluorescence (ORAC-FL); conditions: Trolox equivalents, mean ± SD
Procedure: The antioxidant power of the imidazopyranotacrines 1–13 was determined by the oxygen radical absorbance capacity by fluorescence (ORAC-FL) method using fluorescein as fluorescent probe and Trolox (6-hydroxy-2,5,7,8-tetramethylchroman-2-carboxylic acid) as a reference compound. Results are expressed as Trolox equivalents (μmol Trolox per μmol test compound).
The radical scavenging activity of imidazopyranotacrines 1–13 was determined by the ORAC-FL method using a Varioskan Flash plate reader with built-in injectors (Thermo Scientific). Trolox, 2,2′-azobis(amidinopropane) dihydrochloride (AAPH) and fluorescein (FL) were purchased from Sigma-Aldrich. The reaction was performed at 37 °C in 75 mM phosphate buffer (pH = 7.4), and the final volume reaction mixture was 200 µL. The final concentrations were 1–8 µM for Trolox and 0.1–1 µM for the tested compounds. Briefly, in a black 96-well microplate (Nunc), antioxidant (20 µL) and fluorescein (120 µL) were incubated for 15 min at 37 °C. Then, 2,2′-azobis(amidinopropane) dihydrochloride (60 µL) was added using the built-in injector. […] All assays were made in triplicate and at least three different assays were performed for each sample.
The net AUC corresponding to a sample was calculated as follows: Net AUC = AUCantioxidant − AUCblank(2)
Regression equations were calculated by plotting the net AUC against the antioxidant concentration. The ORAC value was obtained by dividing the slope of the latter curve by the slope of the Trolox curve obtained in the same assay. ORAC values was expressed as µmol of Trolox equivalent/µmol of imidazopyranotacrines. Data are expressed as mean ± SD.

[2] = molecular target: T1, BuChE from horse serum (eqBuChE) (Equus caballus, UniProt P81908); experiment: biochemical; conditions: mean ± SEM
T1 construct: BuChE from horse serum (lyophilized powder, Sigma-Aldrich); purchased Sigma-Aldrich; host or cells: horse serum
Procedure: The % inhibitory activity on BuChE from horse serum (lyophilized powder, Sigma-Aldrich), was evaluated spectrophotometrically by the method of Ellman et al.. BuChE stock solutions were first dissolved in 0.1 M phosphate buffer (pH 8.0) and then aliquoted in small vials. Compounds were dissolved in DMSO at 10 mM. The reaction was carried out in a final volume of 3 mL of a 0.1 M phosphate-buffered solution at pH 8.0, containing 5,5′-dithiobis-2-nitrobenzoic acid (DTNB, 2625 µL, 0.35 mM, final concentration), eqBuChE (60 µL, 0.05 U/mL final concentration), tested compound (3 µL, 10 µM, final concentration) and 1% w/v Bovine Serum Albumin phosphate-buffered (pH 8.0) solution (BSA, 40 µL). The inhibition with respect to control without compound was determined by pre-incubating this mixture at rt with each compound for 10 min. After this period, butyrylthiocholine iodide (150 µL, 0.5 mM final concentration) was added and incubated for 15 min at rt.

[3] = molecular target: AChE from Electrophorus electricus (EeAChE) (Electrophorus electricus, UniProt O42275); experiment: physchem
Procedure: The inhibitory activity on AChE from Electrophorus electricus (type VI-S, Sigma, Milan, Italy), was evaluated spectrophotometrically by the method of Ellman et al.. AChE stock solution was prepared by dissolving EeAChE lyophilized powder (Sigma) in 0.1 M phosphate buffer (pH = 8.0) containing 0.1% Triton X-100. Stock solutions of the tested compounds (1 mM) were prepared in MeOH/H2O 50/50 (v/v) and diluted in MeOH/H2O 50/50 (v/v). […] Assay solutions with and without inhibitor were preincubated at 37 °C for 20 min followed by the addition of substrate. Blank solutions containing all components except EeAChE were prepared in parallel to account for the non-enzymatic hydrolysis of the substrate. Initial rate assays were performed at 37 °C with a Jasco V-530 double beam spectrophotometer. […] The velocity in the presence and absence of inhibitor were compared and % inhibition was calculated. The results were plotted by placing the percentage of inhibition in function of the decimal log of the final inhibitor concentration. Linear regression and IC50 values were calculated using Microcal Origin 3.5 software (Microcal Software, […]).

EeAChE = molecular target: T2, EeAChE (Electrophorus electricus, UniProt O42275); experiment: Kinetic analysis of the inhibition of EeAChE (Lineweaver-Burk, Dixon, Cornish-Bowden plots); type: biochemical
T2 construct: purchased Sigma type VI-S
Procedure: . […] The non-competitive mechanism of action was confirmed by building the Cornish-Bowden plot (Figure 3B). Replots of the substrate/velocity versus the concentration of compound 8 provided an estimate of the non-competitive inhibition constant, which resulted equal to 4.10 μM. The non-competitive mechanism of action was confirmed by computational chemistry by performing the docking analysis of both enantiomers of compound 8 on AChE (see Supplementary Materials).
[…]. Four concentrations of inhibitor were selected for this study: 0.850, 2.124, 3.399, 6.798 μM. The plots were assessed by a weighted least-squares analysis that assumed the variance of the velocity (v) to be a constant percentage of v for the entire data set. Data analysis was performed with GraphPad Prism 4.03 software (GraphPad Software Inc., San Diego, CA, USA). The determination of the non-competitive inhibition constant Ki value was carried out using Dixon plot, i.e., plotting the apparent 1/v vs. inhibitor concentration [I] [34] and confirmed by Cornish-Bowden plot ([substrate]/v vs. [I]).

[4] = ORAC-FL, Trolox equivalents, cited from earlier work

Chain of AChE from Electrophorus electricus (EeAChE) (O42275 24-633): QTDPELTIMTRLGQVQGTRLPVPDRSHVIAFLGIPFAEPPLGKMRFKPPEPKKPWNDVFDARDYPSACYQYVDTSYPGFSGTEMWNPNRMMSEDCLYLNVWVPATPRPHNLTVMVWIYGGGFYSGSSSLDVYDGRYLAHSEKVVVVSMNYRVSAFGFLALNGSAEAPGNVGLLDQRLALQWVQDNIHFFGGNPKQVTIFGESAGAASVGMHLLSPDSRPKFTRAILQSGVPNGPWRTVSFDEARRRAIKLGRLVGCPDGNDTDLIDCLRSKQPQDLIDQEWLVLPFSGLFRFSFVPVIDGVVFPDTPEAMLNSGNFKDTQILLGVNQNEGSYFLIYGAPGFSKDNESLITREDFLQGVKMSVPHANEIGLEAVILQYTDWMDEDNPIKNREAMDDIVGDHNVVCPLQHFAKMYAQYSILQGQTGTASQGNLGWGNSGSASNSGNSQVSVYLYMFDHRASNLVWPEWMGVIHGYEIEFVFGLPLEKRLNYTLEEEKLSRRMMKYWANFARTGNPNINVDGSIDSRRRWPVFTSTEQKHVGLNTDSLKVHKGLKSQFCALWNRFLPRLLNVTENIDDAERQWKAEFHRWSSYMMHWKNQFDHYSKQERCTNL
T1 sequence (P81908 whole entry): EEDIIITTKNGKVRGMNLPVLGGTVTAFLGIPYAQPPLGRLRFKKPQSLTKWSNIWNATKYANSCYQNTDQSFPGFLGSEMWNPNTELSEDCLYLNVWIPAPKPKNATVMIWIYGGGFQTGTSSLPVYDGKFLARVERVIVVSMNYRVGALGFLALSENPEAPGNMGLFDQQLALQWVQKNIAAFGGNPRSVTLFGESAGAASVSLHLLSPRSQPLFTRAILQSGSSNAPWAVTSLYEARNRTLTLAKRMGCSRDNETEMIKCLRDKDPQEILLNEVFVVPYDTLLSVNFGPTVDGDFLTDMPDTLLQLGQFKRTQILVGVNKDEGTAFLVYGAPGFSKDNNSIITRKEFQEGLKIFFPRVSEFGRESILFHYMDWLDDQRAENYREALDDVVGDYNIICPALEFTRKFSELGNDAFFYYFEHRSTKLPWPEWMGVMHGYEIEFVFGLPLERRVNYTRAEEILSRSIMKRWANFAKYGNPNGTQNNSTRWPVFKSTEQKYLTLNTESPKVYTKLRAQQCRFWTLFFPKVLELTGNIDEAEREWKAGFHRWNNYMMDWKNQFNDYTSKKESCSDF
T2 sequence (O42275 24-633): as the sequence (O42275 24-633) above

7-(1-Methyl-1H-imidazol-2-yl)-9,10,11,12-tetrahydro-7H-benzo[7,8]chromeno[2,3-b]quinolin-8-amine [Compound 10]
Cell viability (MTT reduction, % control) (HepG2 cells; HepG2, 1 µM): 101.8 ± 4.2 % control
Cell viability (MTT reduction, % control) (HepG2 cells; HepG2, 3 µM): 100.7 ± 2.6 % control
Cell viability (MTT reduction, % control) (HepG2 cells; HepG2, 10 µM): 100.5 ± 1.9 % control
Cell viability (MTT reduction, % control) (HepG2 cells; HepG2, 30 µM): 71.4 ± 7.4 % control
Cell viability (MTT reduction, % control) (HepG2 cells; HepG2, 100 µM): 63.5 ± 6.2 % control
Cell viability (MTT reduction, % control) (HepG2 cells; HepG2, 300 µM): 64.8 ± 5.7 % control
Cell viability (MTT reduction, % control) (HepG2 cells; HepG2, 1000 µM): 66.8 ± 4.1 % control
hepatotoxicity on HepG2 cells (in words) (HepG2 cells): more toxic than tacrine
ORAC [1]: 2.75 ± 0.09 µmol Trolox/µmol compound
eqBuChE % Inhibition at 10 μM [2]: 25.0 ± 0.2%
IC50 ([3]; read-out: EeAChE IC50 Values, mean ± SEM): 10.7 ± 0.2 µM

CCOC(=O)C1=C(C)Oc2nc3c(c(N)c2C1c1nccn1C)CCCC3 (centres unmarked) [Compound 2, Ethyl 5-amino-2-methyl-4-(1-methyl-1H-imidazol-2-yl)-6,7,8,9-tetrahydro-4H-pyrano[2,3-b]quinoline-3-carboxylate]
Cell viability (MTT reduction, % control) (HepG2 cells; HepG2, 1 µM): 102.7 ± 3.7 % control
Cell viability (MTT reduction, % control) (HepG2 cells; HepG2, 3 µM): 103.2 ± 4.4 % control
Cell viability (MTT reduction, % control) (HepG2 cells; HepG2, 10 µM): 101.3 ± 3.9 % control
Cell viability (MTT reduction, % control) (HepG2 cells; HepG2, 30 µM): 99.2 ± 2.6 % control
Cell viability (MTT reduction, % control) (HepG2 cells; HepG2, 100 µM): 93.0 ± 4.7 % control
Cell viability (MTT reduction, % control) (HepG2 cells; HepG2, 300 µM): 87.5 ± 3.2 % control
Cell viability (MTT reduction, % control) (HepG2 cells; HepG2, 1000 µM): 58.8 ± 2.1 % control
hepatotoxicity on HepG2 cells (in words) (HepG2 cells): safe even at 300 µM
ORAC [1]: 1.79 ± 0.17 µmol Trolox/µmol compound
inhibition at 10 µM [2]: 34 ± 0.5%
IC50 [3]: 11.5 ± 0.4 µM

CC(=O)C1=C(C)Oc2nc3c(c(N)c2C1c1nccn1C)CCCC3 (centres unmarked) [Compound 4, 1-(5-Amino-2-methyl-4-(1-methyl-1H-imidazol-2-yl)-6,7,8,9-tetrahydro-4H-pyrano[2,3-b]quinolin-3-yl)ethan-1-one]
Cell viability (MTT reduction, % control) (HepG2 cells; HepG2, 1 µM): 107.7 ± 5.1 % control
Cell viability (MTT reduction, % control) (HepG2 cells; HepG2, 3 µM): 105.3 ± 2.9 % control
Cell viability (MTT reduction, % control) (HepG2 cells; HepG2, 10 µM): 102.1 ± 2.9 % control
Cell viability (MTT reduction, % control) (HepG2 cells; HepG2, 30 µM): 98.0 ± 3.1 % control
Cell viability (MTT reduction, % control) (HepG2 cells; HepG2, 100 µM): 104.6 ± 4.5 % control
Cell viability (MTT reduction, % control) (HepG2 cells; HepG2, 300 µM): 97.1 ± 3.0 % control
Cell viability (MTT reduction, % control) (HepG2 cells; HepG2, 1000 µM): 96.8 ± 1.5 % control
hepatotoxicity on HepG2 cells (in words) (HepG2 cells): non-hepatotoxic; also recorded: safe even at 300 µM; also recorded: non-toxic even at the highest tested concentration; also recorded: lack of hepatotoxicity even at very high concentration
ORAC [1]: 2.31 µmol Trolox/µmol compound and 2.31 ± 0.29 µmol Trolox/µmol compound
inhibition at 10 µM [2]: 24.9 ± 0.9%
IC50 [3]: 38.7 ± 1.7 µM

Cn1ccnc1C1c2c(nc3c(c2N)CCCC3)Oc2ccc3ccccc3c21 (centres unmarked) [Compound 8, 14-(1-Methyl-1H-imidazol-2-yl)-9,11,12,14-tetrahydro-10H-benzo[5,6]chromeno[2,3-b]quinolin-13-amine]
Cell viability (MTT reduction, % control) (HepG2 cells; HepG2, 1 µM): 108.1 ± 5.4 % control
Cell viability (MTT reduction, % control) (HepG2 cells; HepG2, 3 µM): 101.3 ± 10.8 % control
Cell viability (MTT reduction, % control) (HepG2 cells; HepG2, 10 µM): 79.0 ± 9.1 % control
Cell viability (MTT reduction, % control) (HepG2 cells; HepG2, 30 µM): 57.6 ± 4.2 % control
Cell viability (MTT reduction, % control) (HepG2 cells; HepG2, 100 µM): 52.7 ± 3.3 % control
Cell viability (MTT reduction, % control) (HepG2 cells; HepG2, 300 µM): 51.2 ± 2.8 % control
Cell viability (MTT reduction, % control) (HepG2 cells; HepG2, 1000 µM): 66.2 ± 6.8 % control
hepatotoxicity on HepG2 cells (in words) (HepG2 cells): more toxic than tacrine
ORAC [1]: 1.88 ± 0.01 µmol Trolox/µmol compound
mechanism of inhibition of EeAChE (EeAChE; Km unaltered, Vmax decreased): non-competitive
Ki (EeAChE; substrate acetylthiocholine, estimate from Cornish-Bowden plot, read-out: non-competitive inhibition constant (Ki)): 4.1 µM
inhibition at 10 µM [2]: 51.6 ± 0.6%
IC50 [3]: 6.73 ± 0.52 µM

Nc1c2c(nc3ccccc13)CCCC2 [Tacrine]
Cell viability (MTT reduction, % control) (HepG2 cells; HepG2, 1 µM): 95.8 ± 2.2 % control
Cell viability (MTT reduction, % control) (HepG2 cells; HepG2, 3 µM): 100.4 ± 2.2 % control
Cell viability (MTT reduction, % control) (HepG2 cells; HepG2, 10 µM): 96.9 ± 3.9 % control
Cell viability (MTT reduction, % control) (HepG2 cells; HepG2, 30 µM): 97.7 ± 3.9 % control
Cell viability (MTT reduction, % control) (HepG2 cells; HepG2, 100 µM): 98.6 ± 3.8 % control
Cell viability (MTT reduction, % control) (HepG2 cells; HepG2, 300 µM): 39.2 ± 4.7 % control
Cell viability (MTT reduction, % control) (HepG2 cells; HepG2, 1000 µM): 20.0 ± 2.1 % control
hepatotoxicity on HepG2 cells (in words) (HepG2 cells): safe up to 100 µM
ORAC [4]: 0.20 ± 0.04 [28] µmol Trolox/µmol compound
ORAC ([4]; listed as tacrine): 0.20 ± 0.04 µmol Trolox/µmol compound
